Patent publication US20260235610A1, “METHOD OF PREDICTING SUCCESS OF A CANCER THERAPY” (IMMUSMOL SAS, priority 2023, published 2026)

What was measured:
TPH1 = molecular target: T1, TPH1 (Homo sapiens, UniProt P17752); assay: Tryptophan metabolites (Trp, 5HTP, 5HT and ratios) in QGP1-conditioned media as surrogate of TPH1 activity; type: cell-based; conditions: QGP1 cells cultured 48 hours; for effect on C-Media decrease in Trp level and concomitant increase of 5HTP, 5HT, 5HTP/Trp and 5HT/Trp ratios: Telotristat 1 μM, PEA 300 μM, versus C-Media alone
T1 construct: QGP1 neuroendocrine tumor cell line characterized by a high TPH1 expression and activity; endogenous in cells; host or cells: QGP-1 neuroendocrine tumor cell line
T1 sequence (P17752 1-444): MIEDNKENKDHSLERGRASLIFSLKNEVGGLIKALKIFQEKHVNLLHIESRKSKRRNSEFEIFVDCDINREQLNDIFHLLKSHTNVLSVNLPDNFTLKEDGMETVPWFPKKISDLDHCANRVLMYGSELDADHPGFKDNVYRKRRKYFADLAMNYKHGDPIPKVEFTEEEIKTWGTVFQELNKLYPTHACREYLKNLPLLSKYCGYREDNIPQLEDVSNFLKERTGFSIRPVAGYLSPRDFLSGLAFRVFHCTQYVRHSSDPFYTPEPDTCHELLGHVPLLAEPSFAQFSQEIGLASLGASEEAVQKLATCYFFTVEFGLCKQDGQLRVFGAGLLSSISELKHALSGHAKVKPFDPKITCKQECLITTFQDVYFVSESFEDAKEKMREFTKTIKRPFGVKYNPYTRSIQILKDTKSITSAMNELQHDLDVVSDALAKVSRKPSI
Experimental: The impact of TPH1^High conditioned culture media (C-Media) on immune cell activation was evaluated. QGP1 neuroendocrine tumor cell line characterized by a high TPH1 expression and activity was cultured over a 48-hour period in the presence and absence of Telotristat (TPH1 inhibitor) or Phenethylamine (PEA) alone and in the presence of Telotristat.
The media characteristics were as follows: • i) NC-Media • ii) C-Media • iii) C-Media+Telotristat (TPH1 inhibitor) • iv) C-Media+Phenethylamine (PEA) • v) C-Media+Telotristat (TPH1 inhibitor)+Phenethylamine (PEA)
(§1) The QGP-1 cell line was cultured in RPMI-1640 medium, supplemented with 10% (v/v) FCS and penicillin-streptomycin in a humidified incubator at 5% CO2 and 37° C. In order to prepare the conditioned media, cells were cultured in 6-well plates for 48 hours in the presence and absence of Telotristat (1 μM), a TPH1 inhibitor, and in the presence and absence of Phenethylamine (PEA; 300 μM), a TPH1 inducer (Zhai et al., 2023). QGP1-conditioned media (C-Media) were used to culture human PBMCs (Peripheral Blood Mononuclear Cells) originating from one healthy donor for a 72-hour period under anti-CD3 activation (0.5 μg/mL). As control, fresh cell culture media (Non-Conditioned Media (NC-Media) was used.
Each analytes-Tryptophan (Trp), 5-hydroxyTryptopan (5HTP) and Serotonin (5HT)-were measured individually and then used to calculate ratio, i.e. 5HTP/Trp and 5HT/Trp as representative surrogate of TPH1 activity.
Tryptophan was quantified using an immunoassay (#BA-E-2700, ImmuSmol, Bordeaux, FRANCE). Briefly, in order to remove proteins, 20 μL of sample were precipitated, vortexed and then centrifuged for 15 minutes (3,000 g, at 4° C.). Twenty five microliters of supernatant were then used for derivatization for a 2 hour period at room temperature. Once the derivatization was achieved, 25 μL of the solution was applied on a 96-microtiters prior addition of 50 μL of anti-Tryptophan antiserum. […]
5-HdroxyTryptophan was quantified using an immunoassay. […]
Serotonin was quantified using an immunoassay (#BA-E-5900R, ImmuSmol, Bordeaux, FRANCE). […]

human PBMCs = assay: anti-CD3 mediated PBMCs activation in QGP1-conditioned media, IFN-γ measurement by HTRF; type: cell-based; conditions: anti-CD3 0.5 μg/mL; for effect on C-Media induced decrease in anti-CD3 mediated PBMCs activation (IFN-γ): PBMCs of one healthy donor, 72 hours, conditioned media prepared with Telotristat 1 μM or PEA 300 μM
Experimental: Culture supernatant was then collected and applied on peripheral blood mononuclear cells (PBMCs) cultivated under anti-CD3-based activation for 3-days.
as §1
At the end of PBMCs treatment period as described above, cell culture supernatants were collected and subjected to IFN-γ measurement by mean of HTRF (Homogeneous Time Resolved Technology, Perkin Elmer) which serves as a surrogate of immune cell activation (FIG. 12). HTRF is a standard technique well-known in the art and therefore perfectly within the routine of the skilled person.

| Structure (SMILES) | effect on C-Media decrease in Trp level and concomitant increase of 5HTP, 5HT, 5HTP/Trp and 5HT/Trp ratios (TPH1) | effect on C-Media induced decrease in anti-CD3 mediated PBMCs activation (IFN-γ) (human PBMCs) | effect on PEA-induced TPH1 activity (TPH1; Telotristat 1 μM plus PEA 300 μM) | effect on the more limited immune cell activation associated with PEA-induced TPH1 activation (IFN-γ) (human PBMCs; PBMCs 72 hours, conditioned media prepared with Telotristat 1 μM plus PEA 300 μM) |
| --- | --- | --- | --- | --- |
| NCCc1ccccc1 [PEA, Phenethylamine] | further increased | increased | – | – |
| Cc1ccn(-c2cc(Cl)ccc2[C@@H](Oc2cc(-c3ccc(C[C@H](N)C(=O)O)cc3)nc(N)n2)C(F)(F)F)n1 [Telotristat] | largely limited | limited | able to limit PEA-induced TPH1 activity | alleviated |
